Experiment: Human HepG2 cell viability assay in 384 well format
Type: toxicity, cell-based
Set-up: dose 125 nL, time 70.5 hour; concentration not given beside the values
Settings: HepG2 cells, read-out: Inhibition

Row | SMILES | cytotoxicity at 70.5 h [%]
1 | CCCS(=O)(=O)N(C)C(=O)CCc1ccsc1 | 0.207
2 | Cc1cc(C)cc(OCC(=O)N2CCCC2)c1 | -21.3
3 | COCCNc1cc(-c2ccccc2CCN)c2cc[nH]c2n1 | -2.8
4 | Cc1noc(NC(=O)c2ccc(C#N)cc2)n1 | -7.88
5 | O=C(NCCC1CN(C2CCCC2)CCO1)c1c[nH]c(=O)[nH]c1=O (stereo not given) | -12.3
6 | COCCCNC(=O)c1c[nH]c2ccc(OC)cc12 | -1.45
7 | CCOc1ccc(NC(=O)NCCCN(C)S(C)(=O)=O)cc1C | -15.1
8 | CCc1nnc(C2Cc3ccccc3CN2Cc2nc(C)no2)o1 (stereo not given) | -3.78
9 | COc1ccc2c(c1)OC1(CCN(Cc3ccccc3C)CC1)CC2=O | -3.9
10 | O=C(c1ccc[nH]1)N1C[C@H]2CC[C@@H]1CN(C1Cc3ccccc3C1)C2 | -9.66
11 | O=C(NCCc1cccs1)[C@]12COC[C@H]1CN(C1CCOCC1)C2 | -6.34
12 | CSC(C)C(=O)NS(=O)(=O)c1ccc(F)c(C(F)(F)F)c1 (stereo not given) | 22.2
13 | CC1=Nc2c(c(=O)[nH]n2C2CCOCC2)C(c2cccc(O)c2)S1 (stereo not given) | -7.06
14 | COCCn1ccnc1C1CCCN(C(=O)c2cc(F)cc(F)c2)C1 (stereo not given) | -3.01
15 | NCC(=O)N1CCCC1c1ccc(C(=O)NCc2ccoc2)s1 (stereo not given) | -2.34
16 | COCCc1noc(-c2ccc(N[C@H]3CCCCNC3=O)nc2)n1 | 1.36
17 | COc1cc(Oc2ncccc2C(F)(F)F)ccc1CN1CCCC1 | 4.5
18 | Cc1cc(C(=O)N2CCn3cc(CN4CCN(C)CC4)nc3C2)no1 | -11.8
19 | Cc1ccc(N2CC[C@@H]3[C@@H]2CCN3C(=O)Cc2cccs2)nn1 | -3.66
20 | CS(=O)(=O)c1snnc1C1CCN(Cc2ccc3nccnc3c2)CC1 | -5.73
21 | C[C@H]1C[C@H]2CN(C(=O)c3cccc4c3OCCO4)CC[C@H]2O1 | 32.2
22 | Cc1cc(CN[C@@H](C)C(N)=O)c(C)s1 | -7.91
23 | CCN(CC)Cc1cc(C(=O)N2CCCC(CC)(C(=O)O)C2)c(C)o1 (stereo not given) | -3.17

Row | SMILES | cytotoxicity at 70.5 h [%]
24 | CCc1ccc(OCC(O)CN2CCC(O)CC2)cc1 (stereo not given) | 24.8
25 | N#Cc1cn(CCCN2CCc3ccccc32)c(=O)[nH]c1=O | 21.5
26 | CC(=O)N1CCC2(CCCN(Cc3ccc(Cl)c(C(F)(F)F)c3)C2)C1 (stereo not given) | -5.25
27 | CCC(=O)N1CCc2nc3cc(OC)c(OC)cc3c(=O)n2CC1 | 29.2
28 | CN(CCc1ccccc1)C(=O)CN1C(=O)OC[C@@H]1c1ccccc1 | 23.5
29 | CSC(C)(C)CNC(=O)NCC[S+]([O-])c1ccccc1F (stereo not given) | -9.35
30 | Cc1nnc([C@@H]2CC[C@@H]3[C@@H](CCN3CC3CCOCC3)O2)o1 | -1.38
31 | CCOC(=O)c1n[nH]cc1-c1cncn1CCn1nc(C)c(Cl)c1C | -5.26
32 | O=C(Cc1cccc(Cl)c1)N[C@@H]1CCNC[C@H]1O | -3.16
33 | CCc1cc(CN(C)C(=O)c2cnon2)on1 | -2.96
34 | Cn1cccc(NC(=O)N2CCC(COCc3ccccc3)C2)c1=O (stereo not given) | 7.11
35 | Cc1ccccc1C(=O)NCCCN1CCc2ccccc2C1 | 19.4
36 | CNC(=O)c1ccc2c(c1)C1(CCN(CC3CC3)CC1)C(=O)N2 | 1.88
37 | Cc1ccc(N2CCCC(NC(=O)Cc3csc(C)n3)C2=O)cc1 (stereo not given) | -0.932
38 | CCCc1cc(C(=O)N2CC(c3ccncc3)C2)ccn1 | 8.75
39 | CN(C)S(=O)(=O)N1CCC(C)(c2ncc(C(N)=O)s2)CC1 | -5.66
40 | NC(=O)c1ccc(CN2CCCC(N3CCCCCC3)C2)cc1 (stereo not given) | 1.67
41 | CC(=O)N1CCN(Cc2nnc(C(C)(C)C)o2)CC1 | -8.04
42 | CNC(=O)NC(C)c1nc(-c2ccccc2)c[nH]1 (stereo not given) | -3.67
43 | CC(=O)N1CCc2[nH]c(=O)ccc2C1 | -6.79
44 | COc1ccc(CN2CCCC(n3cccn3)C2)c(Cl)c1OC (stereo not given) | -9
45 | CCc1nc(CN2CCCN(C(=O)c3ccco3)CC2)cs1 | 16.2

Reference: ChEMBL document CHEMBL3507680, “University of Dundee, Gates Library screen for HepG2 cell viability”
